# Measured values reported in publication PMC12040169 (PLOS Biology, 2025).
# Test: in vitro
# Details: human, hela cells, % viability
row,Structure (SMILES),"viability at 28.5 h, 10 µM [%]"
1,COc1cccc(C(=O)N2CC=C[C@H]2C(=O)NC2CC2)c1 [CBK284278],94.4
2,CCOC(=O)c1c(NC(=O)CN2CC(C)OC(C)C2)sc2c1CCC(C)C2 (centres unmarked) [CBK264572],107
3,N#CC1=C(N)Oc2cc(N)ccc2C1c1ccc(-c2ccccc2)cc1 (centres unmarked) [CBK261605],91.3
4,Cc1ccc(S(=O)(=O)NCC2CCC(C(=O)Oc3ccc4ccc(=O)oc4c3)CC2)cc1 (centres unmarked) [CBK093519],87.9
5,O=C1CCN(C(=O)c2ccccn2)CCN1Cc1cccc(F)c1 [CBK284467],90.5
6,COc1cccc2cc(C(=O)NC3CC3)oc12 [CBK149813],97.8
7,Cc1nn(CC(=O)N2CCC(C)CC2)c(=O)c2cc3occc3n12 [CBK283654],89.8
8,Cc1c(C)n(Cc2ccco2)c2ncnc(NCCCC(=O)O)c12 [CBK307562],90.7
9,CCn1c(=O)n(CC(=O)NCCc2ccccc2)c2cccnc21 [CBK283812],76.1
10,CC(=O)Oc1cccc(NC(=O)CC2Sc3ccccc3NC2=O)c1 (centres unmarked) [CBK261792],92
11,OC1(c2cccnc2F)CCN(Cc2c(F)cccc2Cl)CC1 [CBK283148],106
12,Cc1cccc2c(=O)nc(-c3ccccc3Cl)oc12 [CBK152422],106
13,Cc1cc(Cl)cc(Cl)c1S(=O)(=O)Nc1nc2c(s1)CN(C(=O)N1CCOCC1)CC2 [CBK000931],92.6
14,O=C(O)CCNC1=Nc2ccccc2CCC1 [CBK278160],101
15,CCn1cc(C2CN(S(=O)(=O)c3cccc(COC)c3)CCO2)cn1 (centres unmarked) [CBK304222],93.7
16,CN(C)C(=O)Cn1nc(-c2cc3c(s2)CCC3)oc1=O [CBK284715],99
17,CC(C)[C@@H](CO)Nc1nc(-c2cccnc2)cn2ccnc12 [CBK037539],94
18,O=c1oc(-c2cccnc2)nn1Cc1ccccc1F [CBK283774],87.1
19,O=C(O)Cc1sc(Nc2ccccc2)nc1-c1ccccc1 [CBK286775],97.2
20,O=C(O)C1CC(=O)N(c2cccc3ccccc23)C1 (centres unmarked) [CBK286902],88.8
21,CN(C(=O)CN1CCCCC1Cn1cccn1)C1(C#N)CCCCC1 (centres unmarked) [CBK305412],90.1
22,O=C1OCc2ccc3c(c21)COCO3 [CBK022696],107

row,Structure (SMILES),"viability at 28.5 h, 10 µM [%]"
1,O=C(CCc1nc2ccccc2[nH]1)Nc1ccc(F)cc1 [CBK267238],95.5
2,CN(c1ccccc1)C1CCN(c2nc3c(cnn3C)c(=O)[nH]2)CC1 [CBK305215],96.3
3,Cc1ccc(C(=O)N/C(=C\c2ccccc2F)c2n[nH]c(=S)[nH]2)cc1 [CBK263136],87.4
4,O=C(NCCc1c[nH]c2ccc(Cl)cc12)c1ccc(Cl)cc1Cl [CBK159750],105
5,Fc1cccc2sc(Nc3nc(-c4ccccn4)cs3)nc12 [CBK287479],108
6,O=C(NCCCC1CCOC1)c1cc2ccc(F)cc2[nH]1 (centres unmarked) [CBK283213],110
7,O=C1Nc2ccccc2S(=O)(=O)N2CCCC12 (centres unmarked) [CBK282864],112
8,NS(=O)(=O)c1ccc(NC(=S)Nc2nn(Cc3ccc(Cl)cc3Cl)cc2Cl)cc1 [CBK267020],90.6
9,Cc1cc2occ(CC(=O)NC3CCCN(C)C3)c2cc1C (centres unmarked) [CBK282611],93.1
10,CCN(CC)CCCNC(=O)N1CCCC(CO)C1 (centres unmarked) [CBK156061],103
11,Nc1cc(C(=O)c2ccc(Br)c(N)c2)ccc1Cl [CBK269708],86.6
12,CCn1cc(S(=O)(=O)N2CCN(c3cccc(C(F)(F)F)c3)CC2)cn1 [CBK270328],93.6
13,OCCCCn1c(-c2cccnc2)n[nH]c1=S [CBK288365],88.6
14,COC(=O)N1CC2(CCCCC2NCC2CCCO2)c2ccccc21 (centres unmarked) [CBK083541T],95.2
15,Cc1cc(C(=O)Nc2nnc[nH]2)ccc1[N+](=O)[O-] [CBK264719],99.7
16,Cn1cc(C2CCCCCN2S(=O)(=O)c2ccc(F)cc2)cn1 (centres unmarked) [CBK284739],91.7
17,CC(C)NC(=O)N1CCC[C@@H](O)[C@H](NC(=O)c2ccc(OCc3ccccc3)cc2)C1 [CBK289063],106
18,Cc1c(Cc2ccccc2)c(-n2ccnc2C)n2c(nc3ccccc32)c1C#N [CBK263144],92.4
19,CCOc1ccc(NC(=O)c2ccc(S(=O)(=O)N(C)C)cc2)c([N+](=O)[O-])c1 [CBK263396],90.6
20,O=C(NCc1cccc2ccccc12)N1CCN(c2ccccc2)CC1 [CBK155175],89.1
21,O=C(C[C@@H]1CCNC[C@@H]1Cc1cc(-c2ccccc2)on1)Nc1cccc(O)c1 [CBK289149],102
22,O=C(CSc1nnc(-c2ccccc2F)n1-c1ccccc1)Nc1ccc2cn[nH]c2c1 [CBK267591],81.9

row,Structure (SMILES),"viability at 28.5 h, 10 µM [%]"
1,COc1ccccc1/C=C(/NC(=O)c1ccc(Cl)cc1Cl)C(=O)O [CBK263998],98.4
2,O=C(c1ccccc1)c1ccc(OCC(O)CN2CCN(c3ccccn3)CC2)cc1 (centres unmarked) [CBK266513],98.3
3,Cc1ccc(C(=O)N2CCN(S(=O)(=O)c3cccc([N+](=O)[O-])c3)CC2)cc1 [CBK266259],102
4,O=C(CSc1nnc(-c2ccccc2)c(-c2ccccc2)n1)Nc1ccc([N+](=O)[O-])cc1 [CBK263406],109
5,O=C(O)CCSc1nc(-c2ccccc2)cc(=O)[nH]1 [CBK287076],102
6,CCCCc1ccc(-c2nc3ncccc3cc2O)cc1 [CBK073702],91.3
7,Brc1ccc(-c2nc(NCCCN3CCOCC3)cc(-c3ccccc3)n2)cc1 [CBK261712],90.1
8,Cc1cccc(-c2ncc(NC(=O)COc3ccc4ccccc4c3)nc2-c2ccc(N(C)C)cc2)c1 [CBK037575],111
9,O=C1C[C@@H]2CCN(C(=O)COc3ccccc3)C[C@@H]2CCN1Cc1cccnc1 [CBK288793],82
10,Cn1nc2n(c1=O)CC(C(=O)NCCN1CCCc3ccccc31)CC2 (centres unmarked) [CBK307206],93.5
11,CN(C)c1ccc(/C=N/N=C2\NC(=O)CS2)cc1 [CBK019273],60.6
12,CCOc1cc(OCC)cc(C(=O)N2CCC3(CC2)CC(=O)c2cc(CC)ccc2O3)c1 [CBK168009],101
13,CCCOc1ccc(-c2cc(C(=O)NO)n[nH]2)cc1C [CBK288362],61.3
14,CC(=O)Nc1c[nH]nc1C1CCCN(c2cccc(F)c2C#N)C1 (centres unmarked) [CBK306401],97.2
15,Cc1cnc2c(Cl)c(C(=O)NCC3(CN4CCOCC4)CC3)nn2c1 [CBK306918],98.8
16,CCCCC(=O)N1CCC2(CC1)CC(=O)c1ccc(OCc3ccccc3)c(C)c1O2 [CBK156493],104
17,Cc1ccc2nc(NC(=O)C(C)(C)C)nc(O)c2c1 [CBK021975],97.7
18,Cc1ccc2[nH]c(SCc3nc(-c4cccs4)no3)nc2c1 [CBK269509],108
19,O=C(N/N=C\c1cccc(O)c1)C(=O)N/N=C/c1cccc(O)c1 [CBK261962],87.6
20,CCN1C(=O)/C(=C\NN=C2CCCC2)c2ccc(C3=NNC(=O)CC3)cc21 [CBK263515],88.1
21,CC(C)C(=O)N[C@@H](C)Cn1nc(-c2cccs2)oc1=O [CBK284335],88.3
22,CC(=O)Nc1ccc(S(=O)(=O)Nc2ccc(CC#N)cc2)cc1Cl [CBK044058],87.8

row,Structure (SMILES),"viability at 28.5 h, 10 µM [%]"
1,Cc1ccc(-n2nnc(C(=O)N3CCCCC3C(=O)O)c2C)cc1 (centres unmarked) [CBK304109],87.7
2,Oc1ccc(-c2cncc(Nc3ccc(Br)c(Cl)c3)n2)cc1 [CBK107806],89.4
3,COC(=O)CC(C)(C)/C(C)=N/NS(=O)(=O)c1ccc(C)cc1 [CBK263602],86.7
4,COc1ccc(CCNC(=O)[C@@H]2Cc3c([nH]c4ccccc34)[C@]3(CCN(Cc4ccccc4)C3)N2)cc1OC [CBK062620],114
5,Cc1cc(S(=O)(=O)Nc2ccnn2C(C)C)ccc1F [CBK283069],96.9
6,O=C1N[C@@H]2CCN(CC(=O)N3CCCC3)C[C@@H]2CCCCCOc2ccccc21 [CBK292141],107
7,COCc1cc(=O)oc2cc(NS(C)(=O)=O)ccc12 [CBK008516],119
8,COc1ccccc1/C=N/NC(=O)C(=O)NCc1ccccn1 [CBK262286],93.7
9,O=C1NC/C=C/CC2(CCN(c3ncccn3)CC2)C(=O)NCCOc2ccccc21 [CBK292081],90.3
10,COc1ccc(Cl)cc1S(=O)(=O)N1CCC(C(=O)NCCO)CC1 [CBK270002],84
11,CN(Cc1ccncn1)C(=O)c1cn(CC2CCCO2)nn1 (centres unmarked) [CBK307081],108
12,CSc1cc(C)c(O)c(CO)c1 [CBK020687],85.7
13,O=C(CCn1cnc2ccccc21)N1CCC(c2ccncc2)CC1 [CBK283522],102
14,O=c1/c(=C/c2ccc(N3CCOCC3)cc2)sc2nc3cc(Br)cnc3n12 [CBK262574],86.9
15,CC(C)NC(=O)N1Cc2nc[nH]c2C[C@H]1c1nc(-c2ccc(OC(F)(F)F)cc2)no1 [CBK288960],85.9
16,c1ccc(-c2ccccc2CN2CCC(Oc3nccnc3OCCN3CCOCC3)CC2)cc1 [CBK082924T],102
17,Cc1cc(C)nc(SCCN2CCOCC2)n1 [CBK261769C],93.8
18,CN(Cc1ccccc1)C1(O)C(=O)Nc2ccc(Cl)cc21 (centres unmarked) [CBK269703],95.9
19,CN1CCCN(c2cncc(-c3cccs3)n2)CC1 [CBK065542],101
20,O=C(c1ccccc1)N1C[C@@H](c2ccsc2)[C@@H]2CN(Cc3cccc(Cl)c3)CC[C@@H]21 [CBK285603],108
21,CCc1c(C)nc(C)nc1N1CCCn2nc(C(O)C3CC3)cc2C1 (centres unmarked) [CBK306778],100
22,COCCNC(=O)CN(C)c1cnc2ccccc2n1 [CBK305265],89.2

# Same assay, conditions: human, hela cells, % viability, bulk resorufin, single well
row,Structure (SMILES),"viability at 28.5 h, 10 µM [%]"
1,CC(=O)Nc1ccc(OC(=O)N2CCCCC2)cc1 [CBK090124],99.1
